Source: PubChem BioAssay (NCI)
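Growth conditions: 96-well plates. Treatment: test compound, 48 hours, 5 concentrations. Analysis: linear interpolation between bracketing concentrations; unreached endpoints set to highest concentration. GI50 marks 50% less growth. TGI: concentration producing complete growth inhibition.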

Key:
Assay in all cases: NCI-60 cell line screen, 48 h
[1] = tested on: 786-0 renal
[2] = tested on: A498 renal
[3] = tested on: A549 NSCLC
[4] = tested on: ACHN renal
[5] = tested on: BT-549 breast
[6] = tested on: CAKI-1 renal
[7] = tested on: CCRF-CEM leukemia
[8] = tested on: COLO 205 colon
[9] = tested on: DU-145 prostate
[10] = tested on: EKVX NSCLC
[11] = tested on: HCC-2998 colon
[12] = tested on: HCT-116 colon
[13] = tested on: HCT-15 colon
[14] = tested on: HL-60(TB) leukemia
[15] = tested on: HOP-62 NSCLC
[16] = tested on: HOP-92 NSCLC
[17] = tested on: HS 578T breast
[18] = tested on: HT29 colon
[19] = tested on: IGROV1 ovarian
[20] = tested on: KM12 colon
[21] = tested on: LOX IMVI melanoma
[22] = tested on: M14 melanoma
[23] = tested on: MALME-3M melanoma
[24] = tested on: MCF7 breast
[25] = tested on: MDA-MB-231 breast
[26] = tested on: MDA-MB-435
[27] = tested on: MOLT-4 leukemia
[28] = tested on: NCI-H226 lung
[29] = tested on: NCI-H23 lung
[30] = tested on: NCI-H460 lung
[31] = tested on: NCI-H522 lung
[32] = tested on: NCI/ADR-RES ovarian
[33] = tested on: OVCAR-4 ovarian
[34] = tested on: OVCAR-5 ovarian
[35] = tested on: OVCAR-8 ovarian
[36] = tested on: PC-3 prostate
[37] = tested on: RPMI-8226 leukemia
[38] = tested on: RXF 393 renal
[39] = tested on: SF-268 CNS
[40] = tested on: SF-295 CNS
[41] = tested on: SF-539 CNS
[42] = tested on: SK-MEL-2 melanoma
[43] = tested on: SK-MEL-28 melanoma
[44] = tested on: SK-MEL-5 melanoma
[45] = tested on: SK-OV-3 ovarian
[46] = tested on: SN12C renal
[47] = tested on: SNB-19 CNS
[48] = tested on: SNB-75 CNS
[49] = tested on: SR leukemia
[50] = tested on: SW-620 colon
[51] = tested on: T-47D breast
[52] = tested on: TK-10 renal
[53] = tested on: U251 CNS
[54] = tested on: UACC-257 melanoma
[55] = tested on: UACC-62 melanoma
[56] = tested on: UO-31 renal

Compound: CCCCCCCCNC(=O)c1ccc(Cn2c(CCCC)nc3c(N)nc4ccccc4c32)cc1
- GI50 [1]: 1.71 µM
- TGI [1]: 3.34 µM
- GI50 [2]: 2.35 µM
- TGI [2]: 11.3 µM
- GI50 [3]: 3.16 µM
- TGI [3]: 12.3 µM
- GI50 [4]: 1.72 µM
- TGI [4]: 3.66 µM
- GI50 [5]: 1.91 µM
- TGI [5]: 4.14 µM
- GI50 [6]: 1.65 µM
- TGI [6]: 6.24 µM
- GI50 [7]: 1.73 µM
- TGI [7]: 4.96 µM
- GI50 [8]: 2.04 µM
- TGI [8]: 4.33 µM
- GI50 [9]: 3.5 µM
- TGI [9]: 12.1 µM
- GI50 [10]: 2.85 µM
- TGI [10]: 17.2 µM
- GI50 [11]: 2.22 µM
- TGI [11]: 5.39 µM
- GI50 [12]: 1.08 µM
- TGI [12]: 2.47 µM
- GI50 [13]: 1.7 µM
- TGI [13]: 3.87 µM
- GI50 [14]: 1.83 µM
- TGI [14]: 4.61 µM
- GI50 [15]: 2.57 µM
- TGI [15]: 11.1 µM
- GI50 [16]: 0.0269 µM
- TGI [16]: 0.838 µM
- GI50 [17]: 1.96 µM
- TGI [17]: 4.33 µM
- GI50 [18]: 2.49 µM
- TGI [18]: 7.16 µM
- GI50 [19]: 1.6 µM
- TGI [19]: 4.49 µM
- GI50 [20]: 2.49 µM
- TGI [20]: 6.52 µM
- GI50 [21]: 1.42 µM
- TGI [21]: 2.82 µM
- GI50 [22]: 1.74 µM
- TGI [22]: 3.48 µM
- GI50 [23]: 1.8 µM
- TGI [23]: 3.51 µM
- GI50 [24]: 1.59 µM
- TGI [24]: 3.57 µM
- GI50 [25]: 1.54 µM
- TGI [25]: 3.55 µM
- GI50 [26]: 1.69 µM
- TGI [26]: 3.11 µM
- GI50 [27]: 2.44 µM
- TGI [27]: 8.71 µM
- GI50 [28]: 14.5 µM
- TGI [28]: 41.4 µM
- GI50 [29]: 2.86 µM
- TGI [29]: 12.5 µM
- GI50 [30]: 1.94 µM
- TGI [30]: 3.83 µM
- GI50 [31]: 1.89 µM
- TGI [31]: 4.36 µM
- GI50 [32]: 1.64 µM
- TGI [32]: 3.42 µM
- GI50 [33]: 1.65 µM
- TGI [33]: 3.49 µM
- GI50 [34]: 3.35 µM
- TGI [34]: 13.8 µM
- GI50 [35]: 2.04 µM
- TGI [35]: 5.08 µM
- GI50 [36]: 2.55 µM
- TGI [36]: 11.5 µM
- GI50 [37]: 1.37 µM
- TGI [37]: 3.31 µM
- GI50 [38]: 1 µM
- TGI [38]: 2.79 µM
- GI50 [39]: 2.01 µM
- TGI [39]: 4.63 µM
- GI50 [40]: 1.59 µM
- TGI [40]: 3.19 µM
- GI50 [41]: 1.68 µM
- TGI [41]: 3.19 µM
- GI50 [42]: 1.94 µM
- TGI [42]: 3.94 µM
- GI50 [43]: 1.63 µM
- TGI [43]: 3.05 µM
- GI50 [44]: 1.57 µM
- TGI [44]: 2.91 µM
- GI50 [45]: 2.64 µM
- TGI [45]: 7.47 µM
- GI50 [46]: 1.92 µM
- TGI [46]: 4.89 µM
- GI50 [47]: 2.8 µM
- TGI [47]: 10.2 µM
- GI50 [48]: 1.72 µM
- TGI [48]: 4.2 µM
- GI50 [49]: 1.58 µM
- TGI [49]: 5.18 µM
- GI50 [50]: 1.47 µM
- TGI [50]: 3.2 µM
- GI50 [51]: 1.75 µM
- TGI [51]: 3.95 µM
- GI50 [52]: 2.2 µM
- TGI [52]: 6.22 µM
- GI50 [53]: 1.83 µM
- TGI [53]: 3.98 µM
- GI50 [54]: 1.86 µM
- TGI [54]: 3.67 µM
- GI50 [55]: 1.69 µM
- TGI [55]: 3.29 µM
- GI50 [56]: 0.459 µM
- TGI [56]: 3.3 µM
